From the supplement of paper PMC11061612

How the values were obtained:
SN-38 = compound: CCc1c2c(nc3ccc(O)cc13)-c1cc3c(c(=O)n1C2)COC(=O)[C@]3(O)CC [SN-38]; conditions: max 0.3 µM
Summary of the method: (§1)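 Following 24 hours at 37°C and 5% CO2, cancer cell lines in 1536-well plates with 7.5 μl DMEM/F12 or RPMI and 10% FBS were dosed for 72 hours, final DMSO typically being 0.2%. CellTiter-Glo 2.0 luminescence, scaled between blank-well and DMSO-well means, gave the viability readout. Dose responses were fitted to a two-parameter logistic curve with a non-linear mixed effects model, and the single-agent IC50 was derived from this fit.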

AZD1390 = compound: CC(C)n1c(=O)n(C)c2cnc3cc(F)c(-c4ccc(OCCCN5CCCCC5)nc4)cc3c21 [AZD1390]; conditions: max 0.3 µM
Summary of the method: as §1

Taselisib = compound: Cc1nc(-c2cn3c(n2)-c2ccc(-c4cnn(C(C)(C)C(N)=O)c4)cc2OCC3)n(C(C)C)n1 [Taselisib]; conditions: max 10 µM
Summary of the method: as §1

AZD0156 = compound: CN(C)CCCOc1ccc(-c2ccc3ncc4c(c3c2)n(C2CCOCC2)c(=O)n4C)cn1 [AZD0156]; conditions: max 3 µM
Summary of the method: as §1

Dasatinib = compound: CC1=C(C(=CC=C1)Cl)NC(=O)C2=CN=C(S2)NC3=CC(=NC(=N3)C)N4CCN(CC4)CCO [Dasatinib]; conditions: max 2 µM
Summary of the method: as §1

AZD8186 = compound: C[C@@H](Nc1cc(F)cc(F)c1)c1cc(C(=O)N(C)C)cc2c(=O)cc(N3CCOCC3)oc12 [AZD8186]; conditions: max 3 µM
Summary of the method: as §1

AZD5153 = compound: COc1nnc2ccc(N3CCC(c4ccc(OCCN5CCN(C)C(=O)[C@H]5C)cc4)CC3)nn12 [AZD5153]; conditions: max 1 µM
Summary of the method: as §1

Prexasertib = compound: COc1cccc(OCCCN)c1-c1cc(Nc2cnc(C#N)cn2)n[nH]1 [Prexasertib]; conditions: max 1 µM
Summary of the method: as §1

Alisertib = compound: COc1cc(Nc2ncc3c(n2)-c2ccc(Cl)cc2C(c2c(F)cccc2OC)=NC3)ccc1C(=O)O [Alisertib]; conditions: max 10 µM
Summary of the method: as §1

AZD5991 = compound: Cc1c2c(nn1C)CSCc1cc(n(C)n1)CSc1cc(c3ccccc3c1)OCCCc1c(C(=O)O)n(C)c3c-2c(Cl)ccc13 [AZD5991]; conditions: max 1 µM
Summary of the method: as §1

Lapatinib = compound: CS(=O)(=O)CCNCc1ccc(-c2ccc3ncnc(Nc4ccc(OCc5cccc(F)c5)c(Cl)c4)c3c2)o1 [Lapatinib]; conditions: max 10 µM
Summary of the method: as §1

SG3199 = compound: CC1=CN2[C@@H](C1)C=NC3=CC(=C(C=C3C2=O)OC)OCCCCCOC4=C(C=C5C(=C4)N=C[C@@H]6CC(=CN6C5=O)C)OC [SG3199]; conditions: max 0.001 µM
Summary of the method: as §1

AZD1775 = compound: C=CCn1c(=O)c2cnc(Nc3ccc(N4CCN(C)CC4)cc3)nc2n1-c1cccc(C(C)(C)O)n1 [AZD1775]; conditions: max 3 µM
Summary of the method: as §1

Palbociclib = compound: CC(=O)c1c(C)c2cnc(Nc3ccc(N4CCNCC4)cn3)nc2n(C2CCCC2)c1=O [Palbociclib]; conditions: max 10 µM
Summary of the method: as §1

Crizotinib = compound: C[C@@H](Oc1cc(-c2cnn(C3CCNCC3)c2)cnc1N)c1c(Cl)ccc(F)c1Cl [Crizotinib]; conditions: max 10 µM
Summary of the method: as §1

Gefitinib = compound: COc1cc2ncnc(Nc3ccc(F)c(Cl)c3)c2cc1OCCCN1CCOCC1 [Gefitinib]; conditions: max 10 µM
Summary of the method: as §1

Trametinib = compound: CC(=O)Nc1cccc(-n2c(=O)n(C3CC3)c(=O)c3c(Nc4ccc(I)cc4F)n(C)c(=O)c(C)c32)c1 [Trametinib]; conditions: max 1 µM
Summary of the method: as §1

Savolitinib = compound: C[C@@H](c1ccc2nccn2c1)n1nnc2ncc(-c3cnn(C)c3)nc21 [Savolitinib]; conditions: max 1 µM
Summary of the method: as §1

AZD4320 = compound: CN(CC[C@H](CSC1=CC=CC=C1)NC2=C(C=C(C=C2)S(=O)(=O)NC(=O)C3=CC=C(C=C3)N4CCC(CC4)[C@H](C5=CC=CC=C5C6=CC=C(C=C6)Cl)O)S(=O)(=O)C(F)(F)F)CCO [AZD4320]; conditions: max 1 µM
Summary of the method: as §1

AZD7648 = compound: Cc1cc2ncnn2cc1Nc1ncc2c(n1)n(C1CCOCC1)c(=O)n2C [AZD7648]; conditions: max 10 µM
Summary of the method: as §1

AZD2811 = compound: CCN(CCO)CCCOc1ccc2c(Nc3cc(CC(=O)Nc4cccc(F)c4)[nH]n3)ncnc2c1 [AZD2811]; conditions: max 1 µM
Summary of the method: as §1

Venetoclax = compound: CC1(C)CCC(CN2CCN(c3ccc(C(=O)NS(=O)(=O)c4ccc(NCC5CCOCC5)c([N+](=O)[O-])c4)c(Oc4cnc5[nH]ccc5c4)c3)CC2)=C(c2ccc(Cl)cc2)C1 [Venetoclax]; conditions: max 1 µM
Summary of the method: as §1

MK-2206 = compound: NC1(c2ccc(-c3nc4ccn5c(=O)[nH]nc5c4cc3-c3ccccc3)cc2)CCC1 [MK-2206]; conditions: max 10 µM
Summary of the method: as §1

AZD6738 = compound: C[C@@H]1COCCN1C2=NC(=NC(=C2)C3(CC3)[S@](=N)(=O)C)C4=C5C=CNC5=NC=C4 [AZD6738]; conditions: max 10 µM
Summary of the method: as §1

Doxorubicin = compound: COc1cccc2c1C(=O)c1c(O)c3c(c(O)c1C2=O)C[C@@](O)(C(=O)CO)C[C@@H]3O[C@H]1C[C@H](N)[C@H](O)[C@H](C)O1 [Doxorubicin]; conditions: max 1 µM
Summary of the method: as §1

Capivasertib = compound: C1CN(CCC1(C(=O)N[C@@H](CCO)C2=CC=C(C=C2)Cl)N)C3=NC=NC4=C3C=CN4 [Capivasertib]; conditions: max 10 µM
Summary of the method: as §1

Olaparib = compound: O=C(c1cc(Cc2n[nH]c(=O)c3ccccc23)ccc1F)N1CCN(C(=O)C2CC2)CC1 [Olaparib]; conditions: max 10 µM
Summary of the method: as §1

Selumetinib = compound: Cn1cnc2c(F)c(Nc3ccc(Br)cc3Cl)c(C(=O)NOCCO)cc21 [Selumetinib]; conditions: max 10 µM
Summary of the method: as §1

Row | Cell Line | IC50, cell viability 72 h (SN-38) | IC50, cell viability 72 h (AZD1390) | IC50, cell viability 72 h (Taselisib) | IC50, cell viability 72 h (AZD0156) | IC50, cell viability 72 h (Dasatinib) | IC50, cell viability 72 h (AZD8186) | IC50, cell viability 72 h (AZD5153) | IC50, cell viability 72 h (Prexasertib) | IC50, cell viability 72 h (Alisertib) | IC50, cell viability 72 h (AZD5991) | IC50, cell viability 72 h (Lapatinib) | IC50, cell viability 72 h (SG3199) | IC50, cell viability 72 h (AZD1775) | IC50, cell viability 72 h (Palbociclib) | IC50, cell viability 72 h (Crizotinib) | IC50, cell viability 72 h (Gefitinib) | IC50, cell viability 72 h (Trametinib) | IC50, cell viability 72 h (Savolitinib) | IC50, cell viability 72 h (AZD4320) | IC50, cell viability 72 h (AZD7648) | IC50, cell viability 72 h (AZD2811) | IC50, cell viability 72 h (Venetoclax) | IC50, cell viability 72 h (MK-2206) | IC50, cell viability 72 h (AZD6738) | IC50, cell viability 72 h (Doxorubicin) | IC50, cell viability 72 h (Capivasertib) | IC50, cell viability 72 h (Olaparib) | IC50, cell viability 72 h (Selumetinib)
1 | PWR-1E (Non-Cancerous) | 13 nM | > 300 nM | 7.81 µM | > 3000 nM | 371 nM | > 3000 nM | 343 nM | 28.1 nM | 1.51 µM | > 1000 nM | > 10 µM | > 1 nM | 525 nM | > 10 µM | 8.5 µM | > 10 µM | > 1000 nM | > 1000 nM | > 1000 nM | > 10 µM | 827 nM | > 1000 nM | > 10 µM | 2.82 µM | > 1000 nM | > 10 µM | > 10 µM | > 10 µM
2 | SCC-15 (Oral Cavity Carcinoma) | 66.1 nM | > 300 nM | 2 µM | > 3000 nM | 1360 nM | > 3000 nM | > 1000 nM | 682 nM | > 10 µM | > 1000 nM | > 10 µM | > 1 nM | > 3000 nM | > 10 µM | > 10 µM | > 10 µM | > 1000 nM | > 1000 nM | > 1000 nM | > 10 µM | > 1000 nM | > 1000 nM |  | > 10 µM | > 1000 nM | > 10 µM | > 10 µM | > 10 µM
3 | SU8686 (Pancreatic Carcinoma) | > 300 nM | > 300 nM | > 10 µM | > 3000 nM | > 2000 nM | > 3000 nM | > 1000 nM | 489 nM | > 10 µM | > 1000 nM | > 10 µM | > 1 nM | > 3000 nM | > 10 µM | > 10 µM | > 10 µM | > 1000 nM | > 1000 nM | > 1000 nM | > 10 µM | > 1000 nM | > 1000 nM |  | > 10 µM | > 1000 nM | > 10 µM | > 10 µM | > 10 µM
4 | TE-1 (Esophageal Squamous Cell Carcinoma) | 157 nM | > 300 nM | 7.85 µM | > 3000 nM | 393 nM | > 3000 nM | > 1000 nM | 131 nM | 6.09 µM | > 1000 nM | > 10 µM | > 1 nM | 2220 nM | > 10 µM | > 10 µM | > 10 µM | > 1000 nM | > 1000 nM | > 1000 nM | > 10 µM | > 1000 nM | > 1000 nM |  | > 10 µM | > 1000 nM | > 10 µM | > 10 µM | > 10 µM
5 | VA-ES-BJ (Other Solid Carcinomas) | 18.8 nM | > 300 nM | 4.5 µM | > 3000 nM | > 2000 nM | > 3000 nM | > 1000 nM | 118 nM | 4.77 µM | > 1000 nM | > 10 µM | > 1 nM | 3000 nM | > 10 µM | > 10 µM | > 10 µM | > 1000 nM | > 1000 nM | > 1000 nM | > 10 µM | > 1000 nM | > 1000 nM |  | 4.58 µM | 464 nM | > 10 µM | > 10 µM | > 10 µM
